Values joined by “and” are separate entries in the source; they are usually repeats but may differ in a detail not shown here. Equal values may be shown once. Read-outs that look alike come from different tables or passages of the source.
Experiments:
WT MelBSt [1] = molecular target: T1, WT MelBSt (Salmonella typhimurium, UniProt P30878); assay: biochemical; type: binding; settings: for effect on Trp→D2G FRET of D2G-bound protein (displacement): added to D2G-bound WT MelBSt; for IC50: IC50 of galactoside displacement on bound D2G, DDMB, 10 μM D2G, value could be over-estimated
T1 construct: Cys scanning mutagenesis for the full-length MelBSt; His10 (C); made in house; host or cells: E. coli DW2
Method: (§1) Fig. 1 Functional characterizations. a [^3H] Melibiose transport time course with intact cells. […] Inset, melibiose fermentation assay. Transformants with DW2 strain were plated on MacConkey agar plates containing 30 mM melibiose as the sole carbohydrate source and pH sensor neutral red, and incubated at 37 °C for 16–18 h before imaging. Number of tests = 3, from different batch of cells or duplicate measurements from same batch of sample. b Ligand binding by Trp→dansyl galactoside (D^2G) FRET assay. Purified proteins at 1 μM concentration in 20 mM Tris-HCl, pH 7.5, 100 mM CholCl, 10% glycerol, and 0.03% UDM were subjected to steady-state fluorescence measurements as described in Methods. On the time-trace, 1.8 μL of 1 mM D^2G at 10 μM was added into 180 μL of protein solutions at 1-min point, followed by supplying 10 μL of 5 mM DDMB or 5 mM α-NPG to displace the bound D^2G. For testing Na^+ or Li^+ binding, they are added into the solution before displacement with the second sugar. The structure of DDMB or α-NPG is shown in a chair form, and the carbon positions are labeled. Glycosidic bonds are indicated by arrows. Both are α-galactosides containing a substituent at the anomeric carbon-1. The data were from duplicate measurements.
(§2) Steady-state fluorescence measurements were performed with an AMINCO-Bowman series 2 spectrometer with purified MelBSt at 1 μM in 20 mM Tris-HCl, pH 7.5, 100 mM CholCl, 10% glycerol, 0.03% UDM. Using an excitation wavelength at 290 nm, the emission intensity was recorded at 490 nm. On a time-trace, D^2G, NaCl or LiCl, then DDMB or α-NPG, were sequentially added into the protein solutions at a 1 min-interval. […] An identical volume of water was used for the control. The decrease in intensity after each addition of DDMB or α-NPG was corrected by the dilution effect and plotted as a function of the accumulated α-NPG concentrations or estimated DDMB concentrations. The 50% inhibitory concentration (IC50) was determined by fitting a hyperbolic function to the data (OriginPro 2020b). The final concentration of each detergent is estimated to be 234 μM, which is less than their CMC value for (DDMB, 295 μM).
(§3) Supplementary Figure 2. Determination of DDMB binding affinity to MelBSt. (a) Titration with DDMB or a-NPG. MelBSt in 20 mM Tris-HCl, pH 7.5, 100 mM CholCl, 10% glycerol, 0.03% UDM without (1) or with 100 mM NaCl (2) were added with D2G at 10 μM at 1-min time point as indicated by triangle symbols on the Trp®dansyl FRET time trace. Starting at the 2-min of time point, DDMB or a-NPG solution was supplemented consecutively at a 1-min interval into MelBSt solution till no change in fluorescence intensity reached as indicated in star symbols. DDM and UDM were used as negative controls. 1% DDM or UDM was titrated into the mixture, The […]
(§4) At 2-min time point, additions of galactosides were colored in pink, a-NPG in yellow, UDM in blue, DDM in light blue, water in gray traces, respectively. (b) IC50 determination. The intensity decrease at each titration were corrected by the dilution effect, and plotted as a function of the accumulated DDMB or α-NPG concentration. The 50% inhibitory concentration (IC50) was determined by fitting the data to a hyperbolic function (OriginPro 2020b). Results are presented in […]
(§5) (1 picture or pasted object on this page, not shown here)

D59A MelBSt = molecular target: T2, D59A MelBSt (Salmonella typhimurium, UniProt P30878, D59A); assay: Trp→dansyl galactoside (D2G) FRET time trace (D59A); type: binding; settings: no Na+ or Li+ stimulation
T2 construct: Cys scanning mutagenesis for the full-length MelBSt; His10 (C); made in house; host or cells: E. coli DW2
Method: Fig. 1 Functional characterizations. a [^3H] Melibiose transport time course with intact cells. E. coli DW2 strain (melB^−, lacZ^−Y^−) expressed with the WT, D59C, or D59A MelBSt mutants were subjected to [^3H]melibiose active transport assay at 0.4 mM and 10 mCi/mmol in the presence of 20 mM or 100 mM NaCl or LiCl by a fast filtration method. Inset, melibiose fermentation assay. Transformants with DW2 strain were plated on MacConkey agar plates containing 30 mM melibiose as the sole carbohydrate source and pH sensor neutral red, and incubated at 37 °C for 16–18 h before imaging. Number of tests = 3, from different batch of cells or duplicate measurements from same batch of sample. b Ligand binding by Trp→dansyl galactoside (D^2G) FRET assay. Purified proteins at 1 μM concentration in 20 mM Tris-HCl, pH 7.5, 100 mM CholCl, 10% glycerol, and 0.03% UDM were subjected to steady-state fluorescence measurements as described in Methods. […]
Steady-state fluorescence measurements were performed with an AMINCO-Bowman series 2 spectrometer with purified MelBSt at 1 μM in 20 mM Tris-HCl, pH 7.5, 100 mM CholCl, 10% glycerol, 0.03% UDM. Using an excitation wavelength at 290 nm, the emission intensity was recorded at 490 nm. […]

D59C MelBSt [2] = molecular target: T3, D59C MelBSt (Salmonella typhimurium, UniProt P30878, D59C); assay: Trp→dansyl galactoside (D2G) FRET time trace and IC50 of D2G displacement (D59C); type: binding; settings: IC50 of galactoside displacement on bound D2G, DDMB, 10 μM D2G, value could be over-estimated
T3 construct: Cys scanning mutagenesis for the full-length MelBSt; His10 (C); made in house; host or cells: E. coli DW2
Method: as §1, §2, §3, §4, §5

WT MelBSt [3] = molecular target: T1, WT MelBSt; assay: biochemical; type: binding
Method: (§6) All ITC ligand-binding assays were performed with the TA Instruments (Nano-ITC device) at 25 °C. In a typical experiment, the titrand (MelBSt) in the ITC sample cell was titrated with the specified titrant (placed in the Syringe) by an incremental injection of 2-µL aliquots at an interval of 300 s at a constant stirring rate of 250 r.p.m. All samples were degassed using a TA Instruments Degassing Station (model 6326) for 15 min prior to the titration. Data processing was performed with the NanoAnalyze (version 3.6.0 software) provided with the ITC equipment. The normalized heat changes were subtracted from the heat of dilution elicited by last few injections, where no further binding occurred; the corrected heat changes were plotted against the molar ratio of titrant versus titrand. The values for association constant (Ka) value were determined by fitting the data with a one-site independent-binding model. At most cases, the binding stoichiometry (N) number was fixed to 1 since it is a known parameter, which can restrain the data fitting and achieve more accurate results. The dissociation constant Kd = 1/Ka.
(§7) Supplementary Figure 1. ITC measurements. ITC measurements were performed at 25 °C as described in Methods. (a) Binding thermography. For all tests, ligands and proteins are buffer- […]
(§8) (1 picture or pasted object on this page, not shown here) […]
(§9) matched. For melibiose binding measurements, a solution of 80 mM or 10 mM in the absence or presence of NaCl at 100 mM, was injected into the ITC sample cell containing the WT MelBSt at 80 μM without or with 100 mM NaCl, respectively. With the D59C mutant, […] was used. For α-NPG binding measurements, 0.5 mM or 0.4 mM solution was used to titrate the WT or D59C mutant at 50 μM in the absence or presence or 100 mM NaCl, respectively. For the Na+ or Li+ binding measurements, 5 mM or 2 mM solution was used to titrate WT MelBSt at 80 μM without or with 50 mM melibiose, respectively; 40 mM solutions was used to titrate the D59C mutant. (b) binding isotherm. Curve fit was carried out with a one-site independent-binding model included in the NanoAnalyze software (version 3.6.0).

D59C MelBSt [4] = molecular target: T3, D59C MelBSt; assay: biochemical; type: binding; settings: even with increased concentration or in the presence of melibiose; Kd not determinable
Method: as §6, §7, §8, §9

WT MelBSt [5] = molecular target: T1, WT MelBSt; settings: ITC 25 °C, data from publication or averaged with more tests, read-out: Kd, Na+ binding, cited from earlier work

T3 sequence (P30878 whole entry D59C): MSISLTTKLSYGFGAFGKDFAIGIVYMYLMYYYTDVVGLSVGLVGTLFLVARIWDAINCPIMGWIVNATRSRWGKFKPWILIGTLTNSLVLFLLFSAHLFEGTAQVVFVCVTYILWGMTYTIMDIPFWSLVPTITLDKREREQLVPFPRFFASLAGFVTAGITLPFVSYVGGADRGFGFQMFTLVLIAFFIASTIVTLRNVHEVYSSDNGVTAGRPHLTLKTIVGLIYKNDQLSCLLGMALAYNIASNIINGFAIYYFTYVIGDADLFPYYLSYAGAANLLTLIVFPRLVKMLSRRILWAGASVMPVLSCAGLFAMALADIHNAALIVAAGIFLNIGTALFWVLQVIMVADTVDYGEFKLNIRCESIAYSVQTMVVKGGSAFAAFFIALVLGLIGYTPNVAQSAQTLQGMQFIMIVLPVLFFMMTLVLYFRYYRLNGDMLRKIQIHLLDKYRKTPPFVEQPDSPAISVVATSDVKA
T1 sequence (P30878 whole entry): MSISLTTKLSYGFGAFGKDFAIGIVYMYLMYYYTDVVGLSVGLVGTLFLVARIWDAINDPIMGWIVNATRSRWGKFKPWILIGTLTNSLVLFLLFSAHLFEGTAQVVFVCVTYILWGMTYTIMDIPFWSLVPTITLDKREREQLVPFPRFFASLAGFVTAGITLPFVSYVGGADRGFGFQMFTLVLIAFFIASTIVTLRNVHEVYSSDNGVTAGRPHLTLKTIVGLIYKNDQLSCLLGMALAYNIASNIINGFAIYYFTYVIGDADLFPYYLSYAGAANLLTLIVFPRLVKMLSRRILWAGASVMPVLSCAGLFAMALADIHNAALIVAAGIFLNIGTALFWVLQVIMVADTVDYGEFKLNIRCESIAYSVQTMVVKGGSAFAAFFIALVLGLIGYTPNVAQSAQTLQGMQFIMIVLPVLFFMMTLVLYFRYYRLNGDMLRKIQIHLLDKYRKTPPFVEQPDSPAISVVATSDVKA
T2 sequence (P30878 whole entry D59A): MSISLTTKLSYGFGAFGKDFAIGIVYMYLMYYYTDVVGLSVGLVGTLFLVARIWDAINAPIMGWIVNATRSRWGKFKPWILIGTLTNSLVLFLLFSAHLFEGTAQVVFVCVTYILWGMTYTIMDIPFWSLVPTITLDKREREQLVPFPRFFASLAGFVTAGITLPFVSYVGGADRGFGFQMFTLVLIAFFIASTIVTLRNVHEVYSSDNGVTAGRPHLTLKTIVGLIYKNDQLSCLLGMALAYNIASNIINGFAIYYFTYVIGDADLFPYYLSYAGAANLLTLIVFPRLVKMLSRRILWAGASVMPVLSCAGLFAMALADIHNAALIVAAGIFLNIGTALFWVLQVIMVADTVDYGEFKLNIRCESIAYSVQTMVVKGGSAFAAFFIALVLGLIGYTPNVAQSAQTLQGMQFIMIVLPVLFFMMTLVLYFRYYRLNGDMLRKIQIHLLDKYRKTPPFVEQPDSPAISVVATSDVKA

## CCCCCCCCCCCCO[C@@H]1O[C@H](CO)[C@@H](O[C@H]2O[C@H](CO)[C@@H](O)[C@H](O)[C@H]2O)[C@H](O)[C@H]1O [DDM, dodecyl-β-D-maltopyranoside]
WT MelBSt [1]
  effect on Trp→D2G FRET of D2G-bound protein (displacement): only showed a dilution effect similar to the addition of water

## CCCCCCCCCCCCOC1OC(COC2OC(CO)C(O)C(O)C2O)C(O)C(O)C1O [DDMB, dodecyl-β-D-melibioside]
D59A MelBSt
  ligand binding by Trp→D2G FRET: binds
D59C MelBSt [2]; Apo
  IC50: 20 µM and 20.2 µM
D59C MelBSt [2]; Na+ (100 mM)
  IC50: 23.6 ± 3.9 µM
WT MelBSt [1]; Apo
  IC50: 26.1 ± 5.46 µM
WT MelBSt [1]; Na+ (100 mM)
  IC50: 4.79 ± 0.28 µM
WT MelBSt [1]
  effect on Trp→D2G FRET of D2G-bound protein (displacement): large decrease in fluorescent intensity
WT MelBSt [1]; apo vs Na+
  decrease of IC50 in the presence of Na+: 5 fold

## [Li+] [Li^+]
WT MelBSt [3]; Apo, ITC 25 °C, read-out: Kd, Li+ binding
  Kd: 400 ± 100 µM
WT MelBSt [3]; Li+ binding, apo vs melibiose
  decrease of Kd in the presence of melibiose: 6 fold
WT MelBSt [3]; Melibiose (50 mM), ITC 25 °C, read-out: Kd, Li+ binding
  Kd: 70 ± 10 µM
D59C MelBSt [4]
  heat changes derived from cation binding (ITC): quite small

## [Na+] [Na^+]
WT MelBSt [3]; Na+ binding, apo vs melibiose
  cooperativity, change of Kd with melibiose: 8 fold
WT MelBSt [3]; apo MelB, rebuttal letter, read-out: affinity of apo MelB
  Kd: 500 µM
D59C MelBSt [4]
  heat changes derived from cation binding (ITC): quite small
WT MelBSt [5]; Apo
  Kd: 680 ± 30 µM
WT MelBSt [5]; Melibiose (50 mM)
  Kd: 80 ± 10 µM

## CCCCCCCCCCCO[C@@H]1O[C@H](CO)[C@@H](O[C@H]2O[C@H](CO)[C@@H](O)[C@H](O)[C@H]2O)[C@H](O)[C@H]1O [UDM, undecyl-β-D-maltopyranoside]
WT MelBSt [1]
  effect on Trp→D2G FRET of D2G-bound protein (displacement): only showed a dilution effect similar to the addition of water
